Results reported in patent US7750053B2, “Compositions and methods for alleviating hypertension or preventing a rise in blood pressure” (KAO Corporation, priority 2000, dated 2010).
Marks after values point to notes of the source that are not given here.

Tests used:
[1] = tested on: calcium; conditions: from spike of Schizonepeta tenuifolia Briq.; JP Kokai Hei 4-243822; cited from earlier work
[2] = target: angiotensin I converting enzyme (ACE) (Homo sapiens, UniProt P12821); conditions: polyphenols of unripe Rosaceae fruit juice; JP Kokai Hei 8-259453; cited from earlier work
angiotensin I converting enzyme (ACE), sequence (P12821 30-1306, species assumed): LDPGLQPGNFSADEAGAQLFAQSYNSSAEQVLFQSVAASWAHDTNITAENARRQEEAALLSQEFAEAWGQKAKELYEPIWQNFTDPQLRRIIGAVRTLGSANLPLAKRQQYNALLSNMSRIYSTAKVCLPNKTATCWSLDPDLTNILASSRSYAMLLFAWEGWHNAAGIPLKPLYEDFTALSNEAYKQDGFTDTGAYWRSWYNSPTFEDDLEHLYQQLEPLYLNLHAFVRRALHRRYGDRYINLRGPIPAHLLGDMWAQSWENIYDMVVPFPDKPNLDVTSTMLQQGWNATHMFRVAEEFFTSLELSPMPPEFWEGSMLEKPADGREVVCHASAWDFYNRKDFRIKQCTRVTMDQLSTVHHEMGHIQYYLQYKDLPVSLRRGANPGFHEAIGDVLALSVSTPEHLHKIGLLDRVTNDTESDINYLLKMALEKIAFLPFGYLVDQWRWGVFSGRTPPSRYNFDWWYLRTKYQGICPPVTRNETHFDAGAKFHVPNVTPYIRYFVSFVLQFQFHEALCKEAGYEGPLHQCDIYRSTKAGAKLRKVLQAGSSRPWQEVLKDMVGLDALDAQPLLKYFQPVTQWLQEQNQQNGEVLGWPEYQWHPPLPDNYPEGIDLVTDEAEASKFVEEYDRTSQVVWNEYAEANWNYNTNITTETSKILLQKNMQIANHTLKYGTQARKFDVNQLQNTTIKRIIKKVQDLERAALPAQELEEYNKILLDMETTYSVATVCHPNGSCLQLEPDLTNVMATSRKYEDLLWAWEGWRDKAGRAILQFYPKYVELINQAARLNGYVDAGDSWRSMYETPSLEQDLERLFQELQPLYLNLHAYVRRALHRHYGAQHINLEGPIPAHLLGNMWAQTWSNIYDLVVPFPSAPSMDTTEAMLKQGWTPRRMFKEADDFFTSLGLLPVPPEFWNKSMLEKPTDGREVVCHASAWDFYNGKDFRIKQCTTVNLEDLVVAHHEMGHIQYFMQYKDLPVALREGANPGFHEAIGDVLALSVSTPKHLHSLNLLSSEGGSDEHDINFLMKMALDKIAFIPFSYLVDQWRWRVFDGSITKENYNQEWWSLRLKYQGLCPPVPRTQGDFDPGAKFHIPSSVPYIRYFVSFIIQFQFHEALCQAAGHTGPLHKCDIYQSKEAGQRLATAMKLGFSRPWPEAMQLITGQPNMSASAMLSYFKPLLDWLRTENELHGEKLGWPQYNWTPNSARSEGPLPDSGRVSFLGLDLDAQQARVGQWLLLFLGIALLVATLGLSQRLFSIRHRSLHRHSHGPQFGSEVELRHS

[3] = tested on: spontaneously hypertensive rats (SHR); assay: Evaluation of blood pressure reduction (single administration, systolic blood pressure of the caudal artery); format: in vivo, rat; conditions: male 15 week-old SHR, fasted overnight, solution in physiological saline (0.2% actives in total), 1 mL/kg, mean ± SD, n=5; for Systolic blood pressure (changing ratio %) after 10 minutes: 10 minutes after administration vs prior to administration; for Systolic blood pressure (changing ratio %) After 1 hour: 1 hour after administration vs prior to administration
Protocol: Prior to initiation of the experimental studies in order to accustom the test animals to sphygmomanometric operation the blood pressure of each test animal—male, 15 week-old, spontaneously hypertensive rats (“SHR”)—was preliminarily measured for 7 successive days using a commercially available noninvasive sphygmomanometer for rats (manufactured by Softlon Co., Ltd.).
Rats were all bred in a breeding room in a rat region under uniform conditions at a room temperature at 25±1° C., humidity of 55±10% RH and illumination for 12 hours (from 7:00 am to 7:00 pm).
In the control group (Control Plot, see Table 1), physiological saline was employed. As a material to be administered, a solution obtained by dissolving 0.2 wt. % (which will hereinafter be simply described as %) of caffeic acid in physiological saline, a solution obtained by dissolving 0.2% of a chlorogenic acid in physiological saline, a solution obtained by dissolving 0.2% of ferulic acid in physiological saline and a solution obtained by dissolving 0.1% of caffeic acid and 0.1% of ferulic acid in physiological saline were used in Test plot 1, Test plot 2, Test plot 3 and Test plot 4, respectively. In Test plot 5, a solution obtained by dissolving 0.1% of a chlorogenic acid and 0.1% of ferulic acid in physiological saline was used, while in Test plot 6, a solution obtained by dissolving 0.05% of caffeic acid, 0.05% of a chlorogenic acid and 0.1% of ferulic acid in physiological saline was used. Each of them was administered from the common carotid artery. The dosage was 1 mL/kg.
SHRs were fasted overnight and employed for each test group, each group consisted of 5 rats. Systolic blood pressures of the caudal artery prior to intravenous administration, and 10 minutes and 1 hour each after administration were measured.
In Table 1, the changing ratio (%) in systolic blood pressure for each experimental group is reported by its mean value (%) and by its standard deviation. The Student's t-test was used to indicate the statistical significance of the experimental data. A significance level of 5% or less is indicated as “*” in Table 1, and significance level of 0.1% or less as “***”.
A lowering ratio of the systolic blood pressure of each of 10 minutes and 1 hour after administration to the systolic blood pressure prior to administration is shown in Table 1.

| SMILES | calcium antagonism (in words) [1] | angiotensin I converting enzyme (ACE) inhibitory action (in words) [2] | Systolic blood pressure (changing ratio %) after 10 minutes [3] | Systolic blood pressure (changing ratio %) After 1 hour [3] |
| --- | --- | --- | --- | --- |
| O=C(O)/C=C/c1ccc(O)c(O)c1 [Caffeic acid (CA), caffeic acid] | exerts calcium antagonism | inhibitory action | −4.1 ± 2.1% | −10.2 ± 0.5*** % |
| O=C(/C=C/c1ccc(O)c(O)c1)O[C@@H]1C[C@](O)(C(=O)O)C[C@@H](O)[C@H]1O [Chlorogenic acid (CHA), chlorogenic acid] |  | inhibitory action | −3.2 ± 2.6% | −7.2 ± 1.7* % |
| COc1cc(/C=C/C(=O)O)ccc1O [Ferulic acid (FA), ferulic acid] |  |  | −7.8 ± 0.8*** % | 0.7 ± 2.6% |
